Data taken from BindingDB's records for patent US20240368161 (Cgenetech (Suzhou, China), 2024).

Tests used:
[1] = target: Tyrosine-protein kinase JAK1 (Homo sapiens, UniProt P23458); assay: JAK1 Kinase Inhibitory Activity Determination
[2] = target: T1, Tyrosine-protein kinase JAK3 (Homo sapiens, UniProt P52333); assay: JAK3 Kinase Inhibitory Activity Determination
T1 sequence (P52333 whole entry): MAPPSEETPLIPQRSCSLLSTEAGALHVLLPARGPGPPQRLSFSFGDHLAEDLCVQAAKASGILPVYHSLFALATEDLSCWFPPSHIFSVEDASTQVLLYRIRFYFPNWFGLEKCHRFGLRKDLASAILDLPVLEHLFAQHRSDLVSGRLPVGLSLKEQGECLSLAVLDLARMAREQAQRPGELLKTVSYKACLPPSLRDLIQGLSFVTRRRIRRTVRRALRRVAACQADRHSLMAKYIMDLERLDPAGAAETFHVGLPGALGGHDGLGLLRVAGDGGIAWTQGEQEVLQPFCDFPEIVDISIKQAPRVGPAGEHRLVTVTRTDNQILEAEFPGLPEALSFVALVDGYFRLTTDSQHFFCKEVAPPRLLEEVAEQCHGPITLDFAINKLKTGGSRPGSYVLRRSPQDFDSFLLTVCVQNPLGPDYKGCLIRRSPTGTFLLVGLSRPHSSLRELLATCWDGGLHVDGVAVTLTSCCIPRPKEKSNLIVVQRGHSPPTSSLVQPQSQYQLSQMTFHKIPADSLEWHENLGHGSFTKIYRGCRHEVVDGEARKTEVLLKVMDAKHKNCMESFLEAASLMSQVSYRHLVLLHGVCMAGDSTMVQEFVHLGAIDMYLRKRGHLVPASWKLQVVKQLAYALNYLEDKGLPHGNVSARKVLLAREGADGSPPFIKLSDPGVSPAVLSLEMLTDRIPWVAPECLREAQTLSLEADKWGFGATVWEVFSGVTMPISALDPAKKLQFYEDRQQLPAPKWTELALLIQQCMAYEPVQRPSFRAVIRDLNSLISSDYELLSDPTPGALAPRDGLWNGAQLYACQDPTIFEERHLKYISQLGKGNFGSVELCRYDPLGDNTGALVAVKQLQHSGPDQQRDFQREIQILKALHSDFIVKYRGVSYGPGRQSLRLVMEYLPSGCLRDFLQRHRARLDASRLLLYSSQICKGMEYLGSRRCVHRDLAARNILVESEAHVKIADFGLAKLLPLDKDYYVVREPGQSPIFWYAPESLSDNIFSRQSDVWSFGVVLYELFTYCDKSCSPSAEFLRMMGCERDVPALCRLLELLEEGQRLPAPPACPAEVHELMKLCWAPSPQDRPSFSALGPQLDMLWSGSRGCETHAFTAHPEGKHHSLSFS
Method: At the end of incubation, HTRF665/620 signals were read on a multifunctional microplate reader.

[3] = target: Tyrosine-protein kinase JAK2 (Homo sapiens, UniProt O60674); assay: JAK2 Kinase Inhibitory Activity Determination
Chain of Tyrosine-protein kinase JAK2 (O60674 whole entry): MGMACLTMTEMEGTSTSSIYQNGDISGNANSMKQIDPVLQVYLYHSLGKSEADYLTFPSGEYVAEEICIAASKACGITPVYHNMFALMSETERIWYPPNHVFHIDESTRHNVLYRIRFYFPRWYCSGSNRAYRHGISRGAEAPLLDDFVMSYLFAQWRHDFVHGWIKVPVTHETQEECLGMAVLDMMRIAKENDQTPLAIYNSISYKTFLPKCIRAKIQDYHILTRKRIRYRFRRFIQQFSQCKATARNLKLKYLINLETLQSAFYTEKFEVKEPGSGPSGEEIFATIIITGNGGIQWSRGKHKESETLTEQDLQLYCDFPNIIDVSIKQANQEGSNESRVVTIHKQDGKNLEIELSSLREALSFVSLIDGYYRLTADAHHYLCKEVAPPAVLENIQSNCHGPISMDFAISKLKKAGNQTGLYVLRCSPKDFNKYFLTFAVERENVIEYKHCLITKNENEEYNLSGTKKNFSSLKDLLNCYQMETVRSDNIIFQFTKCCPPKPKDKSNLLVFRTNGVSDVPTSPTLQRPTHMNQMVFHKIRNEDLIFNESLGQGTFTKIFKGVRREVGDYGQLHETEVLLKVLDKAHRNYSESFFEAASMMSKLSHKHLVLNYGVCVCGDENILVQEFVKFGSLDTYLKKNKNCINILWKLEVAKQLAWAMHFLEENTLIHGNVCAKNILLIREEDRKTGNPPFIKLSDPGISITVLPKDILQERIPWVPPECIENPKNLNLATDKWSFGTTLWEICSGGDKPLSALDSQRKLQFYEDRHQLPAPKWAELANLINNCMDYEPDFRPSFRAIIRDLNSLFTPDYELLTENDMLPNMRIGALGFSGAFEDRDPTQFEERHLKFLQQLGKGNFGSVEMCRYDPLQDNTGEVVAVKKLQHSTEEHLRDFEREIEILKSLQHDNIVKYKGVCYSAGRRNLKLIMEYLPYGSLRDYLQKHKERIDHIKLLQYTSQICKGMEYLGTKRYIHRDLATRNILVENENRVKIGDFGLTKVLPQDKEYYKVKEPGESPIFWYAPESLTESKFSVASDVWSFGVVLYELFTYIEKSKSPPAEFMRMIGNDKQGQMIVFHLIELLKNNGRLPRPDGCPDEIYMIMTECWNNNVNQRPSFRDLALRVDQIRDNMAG

Chain of Tyrosine-protein kinase JAK1 (P23458 whole entry): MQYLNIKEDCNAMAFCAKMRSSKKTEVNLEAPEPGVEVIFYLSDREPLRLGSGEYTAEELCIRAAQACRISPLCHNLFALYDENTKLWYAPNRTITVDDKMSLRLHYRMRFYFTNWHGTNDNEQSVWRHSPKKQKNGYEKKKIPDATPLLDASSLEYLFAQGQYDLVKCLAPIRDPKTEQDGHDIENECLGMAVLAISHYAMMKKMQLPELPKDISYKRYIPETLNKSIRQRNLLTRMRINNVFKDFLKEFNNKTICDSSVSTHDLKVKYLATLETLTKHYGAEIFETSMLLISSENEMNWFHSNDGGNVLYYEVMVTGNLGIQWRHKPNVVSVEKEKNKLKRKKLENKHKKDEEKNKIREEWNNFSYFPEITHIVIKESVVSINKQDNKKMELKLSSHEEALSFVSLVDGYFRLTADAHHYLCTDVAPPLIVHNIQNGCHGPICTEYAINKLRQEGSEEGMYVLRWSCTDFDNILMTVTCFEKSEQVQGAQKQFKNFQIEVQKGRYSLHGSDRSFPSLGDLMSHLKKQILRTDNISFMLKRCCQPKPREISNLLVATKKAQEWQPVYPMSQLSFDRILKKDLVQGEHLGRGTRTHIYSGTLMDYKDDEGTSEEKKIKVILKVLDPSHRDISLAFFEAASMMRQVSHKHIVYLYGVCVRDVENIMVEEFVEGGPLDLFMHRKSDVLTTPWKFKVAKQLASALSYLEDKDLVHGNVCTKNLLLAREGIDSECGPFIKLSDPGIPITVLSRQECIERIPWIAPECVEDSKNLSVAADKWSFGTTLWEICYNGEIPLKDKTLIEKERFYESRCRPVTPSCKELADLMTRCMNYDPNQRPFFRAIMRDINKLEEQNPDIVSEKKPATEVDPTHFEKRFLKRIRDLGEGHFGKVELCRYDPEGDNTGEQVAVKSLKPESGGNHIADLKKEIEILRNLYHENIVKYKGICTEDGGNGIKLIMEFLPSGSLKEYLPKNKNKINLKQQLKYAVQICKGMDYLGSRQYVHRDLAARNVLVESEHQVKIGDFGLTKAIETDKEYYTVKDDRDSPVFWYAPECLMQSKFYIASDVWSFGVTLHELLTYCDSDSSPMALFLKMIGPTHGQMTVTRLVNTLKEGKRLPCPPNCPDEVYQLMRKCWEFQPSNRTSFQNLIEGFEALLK

CS(=O)(=O)C1CN(Cc2ccc(-c3cccc4nc(NC(=O)C5CC5)cn34)cc2)C1 [US20240368161, Compound 15]
IC50 [1]: 0.137 µM | IC50 [2]: 3.17 µM | IC50 [3]: 0.232 µM

CS(=O)(=O)C1CCN(Cc2ccc(-c3cccc4nc(NC(=O)C5CC5)cn34)cc2)CC1 [US20240368161, Compound 16]
IC50 [1]: 0.0744 µM | IC50 [2]: 3.12 µM | IC50 [3]: 0.127 µM

O=C(Nc1cn2c(-c3ccc(OC4CCS(=O)(=O)CC4)cc3)cccc2n1)C1CC1 [US20240368161, Compound 17]
IC50 [1]: 0.125 µM | IC50 [2]: 1.46 µM | IC50 [3]: 0.0727 µM

CS(=O)(=O)C1CCN(Cc2ccc(-c3cccc4nc(NC(=O)C5CC5)cn34)c(F)c2)CC1 [US20240368161, Compound 20]
IC50 [1]: 0.262 µM | IC50 [2]: 5.76 µM | IC50 [3]: 0.176 µM

CCCS(=O)(=O)C1CCN(Cc2ccc(-c3cccc4nc(NC(=O)C5CC5)cn34)cc2)CC1 [US20240368161, Compound 31]
IC50 [1]: 0.611 µM | IC50 [2]: 6.9 µM | IC50 [3]: 0.229 µM
